Source: PubChem BioAssay AID588341 (The Scripps Research Institute Molecular Screening Center, 2011)
Activity calls are given as the source filed them. How the calls were made is not given here.

Target: Beta-lactamase (reporter enzyme, TEM-1 type bla) (UniProt Q932Y6)
Experiment: BLA reporter interference, concentration series – BLA reporter cells, FRET fluorescence, artefact control for TLR9-MyD88 binding inhibitor project, dose response (AID 588341)
Conditions: BLA reporter cell line, FRET fluorescence inhibition

Chain of Beta-lactamase (reporter enzyme, TEM-1 type bla) (Q932Y6 1-286): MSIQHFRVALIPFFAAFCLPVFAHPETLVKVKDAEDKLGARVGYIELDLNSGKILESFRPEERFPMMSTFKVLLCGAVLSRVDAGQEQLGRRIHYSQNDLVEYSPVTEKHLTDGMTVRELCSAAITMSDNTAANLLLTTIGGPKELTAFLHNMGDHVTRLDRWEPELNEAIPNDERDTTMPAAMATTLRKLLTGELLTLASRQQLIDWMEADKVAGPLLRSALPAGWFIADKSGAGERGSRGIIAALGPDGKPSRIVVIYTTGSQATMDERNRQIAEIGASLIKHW

In the case of `COc1cc(/C=C/C(=O)/C=C(O)/C=C/c2ccc(O)c(OC)c2)ccc1O`, the IC50 is reported as “inactive”.
